In patent US20200347043A1, “MODULATORS OF THE INTEGRATED STRESS PATHWAY” (Calico Life Sciences LLC, priority 2019, published 2020):

Test system: HEK293T cells carrying the ATF4 luciferase reporter
Experiment: ATF4-Luc assay (in vitro model of VWMD)
Assay type: cell-based, human
Details: Homo sapiens, HEK-293T, 1 μg/mL tunicamycin, 7 hours, One Glo luminescence
Outline: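 Tunicamycin (1 μg/mL) stress with co-added compound for 7 hours in HEK293T cells stably carrying an ATF4 5′-UTR–luciferase reporter. EC50 values come from the luminescent signal (One Glo).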

Row | Structure (SMILES) | EC50 [nM]
1 | Cc1nc(C23CC(NC(=O)[C@@H]4C[C@@H](O)c5cc(Cl)ccc5O4)(C2)C3)oc1-c1ccc(Cl)cc1 [Compound 275, (2S,4R)-6-chloro-N-{3-[5-(4-chlorophenyl)-4-methyl-1,3-oxazol-2-yl]bicyclo[1.1.1]pentan-1-yl}-4-hydroxy-3,4-dihydro-2H-1-benzopyran-2-carboxamide] | 50 to 250
2 | O=C(CO[C@H]1C[C@@H](OC(F)(F)F)C1)NC12CCC(NC(=O)[C@@H]3C[C@H](O)c4cc(Cl)ccc4O3)(CC1)C[C@@H]2O [Compound 276, (2S,4S)-6-chloro-4-hydroxy-N-[(3S)-3-hydroxy-4-(2-{[cis-3-(trifluoromethoxy)cyclobutyl]oxy}acetamido)bicyclo[2.2.2]octan-1-yl]-3,4-dihydro-2H-1-benzopyran-2-carboxamide] | < 10
3 | O=C(NC12CC(N3CC(c4ccc(Cl)cc4)OC3=O)(C1)C2)[C@H]1C[C@@H](O)c2cc(Cl)ccc2O1 (stereo partly drawn) [Compound 277, (2R,4R)-6-chloro-N-{3-[5-(4-chlorophenyl)-2-oxo-1,3-oxazolidin-3-yl]bicyclo[1.1.1]pentan-1-yl}-4-hydroxy-3,4-dihydro-2H-1-benzopyran-2-carboxamide] | 50 to 250
4 | O=C(NC12CC(N3CC(c4ccc(Cl)cc4)OC3=O)(C1)C2)[C@@H]1C[C@@H](O)c2cc(Cl)ccc2O1 (stereo partly drawn) [Compound 278, (2S,4R)-6-chloro-N-{3-[5-(4-chlorophenyl)-2-oxo-1,3-oxazolidin-3-yl]bicyclo[1.1.1]pentan-1-yl}-4-hydroxy-3,4-dihydro-2H-1-benzopyran-2-carboxamide] | 500 to 2000
5 | O=C(NC12CC(c3csc([C@H]4C[C@@H](OC(F)(F)F)C4)n3)(C1)C2)[C@H]1C[C@@H](O)c2cc(Cl)ccc2O1 [Compound 280, (2R,4R)-6-chloro-4-hydroxy-N-(3-{2-[cis-3-(trifluoromethoxy)cyclobutyl]-1,3-thiazol-4-yl}bicyclo[1.1.1]pentan-1-yl)-3,4-dihydro-2H-1-benzopyran-2-carboxamide] | 50 to 250
6 | O=C(NC12CC(n3cnc(-c4ccc(Cl)cc4)c3)(C1)C2)[C@H]1C[C@@H](O)c2cc(Cl)ccc2O1 [Compound 281, (2R,4R)-6-chloro-N-{3-[4-(4-chlorophenyl)-1H-imidazol-1-yl]bicyclo[1.1.1]pentan-1-yl}-4-hydroxy-3,4-dihydro-2H-1-benzopyran-2-carboxamide] | < 10
7 | O=C(NC12CC(n3cnc(-c4ccc(Cl)c(F)c4)c3)(C1)C2)[C@H]1C[C@@H](O)c2cc(Cl)ccc2O1 [Compound 282, (2R,4R)-6-chloro-N-{3-[4-(4-chloro-3-fluorophenyl)-1H-imidazol-1-yl]bicyclo[1.1.1]pentan-1-yl}-4-hydroxy-3,4-dihydro-2H-1-benzopyran-2-carboxamide] | < 10
8 | O=C(NC12CC(c3cc([C@H]4C[C@@H](OC(F)(F)F)C4)on3)(C1)C2)[C@@H]1C[C@@H](O)c2cc(Cl)ccc2O1 [Compound 283, (2S,4R)-6-chloro-4-hydroxy-N-(3-{5-[cis-3-(trifluoromethoxy)cyclobutyl]-1,2-oxazol-3-yl}bicyclo[1.1.1]pentan-1-yl)-3,4-dihydro-2H-1-benzopyran-2-carboxamide] | 50 to 250
9 | O=C(NC12CC(c3cc([C@H]4C[C@H](OC(F)(F)F)C4)no3)(C1)C2)[C@H]1C[C@@H](O)c2cc(Cl)ccc2O1 [Compound 284, (2R,4R)-6-chloro-4-hydroxy-N-(3-{3-[trans-3-(trifluoromethoxy)cyclobutyl]-1,2-oxazol-5-yl}bicyclo[1.1.1]pentan-1-yl)-3,4-dihydro-2H-1-benzopyran-2-carboxamide] | 50 to 250
10 | O=C(NC12CC(NC(=O)[C@H]3C[C@@H](O)c4cc(Cl)ccc4O3)(C1)C2)c1cnc(-c2ccccc2)o1 [Compound 285, N-(3-{[(2R,4R)-6-chloro-4-hydroxy-3,4-dihydro-2H-1-benzopyran-2-carbonyl]amino}bicyclo[11.1]pentan-1-yl)-2-phenyl-1,3-oxazole-5-carboxamide] | < 10
11 | N#C[C@H]1C[C@@H](Oc2nc(C34CC(NC(=O)[C@H]5C[C@@H](O)c6cc(Cl)ccc6O5)(C3)C4)cs2)C1 [Compound 286, (2R,4R)-6-chloro-N-[3-(2-{[cis-3-cyanocyclobutyl]oxy}-1,3-thiazol-4-yl)bicyclo[1.1.1]pentan-1-yl]-4-hydroxy-3,4-dihydro-2H-1-benzopyran-2-carboxamide] | 500 to 2000
12 | O=C(NC12CC(n3cnc([C@H]4C[C@@H](OC(F)(F)F)C4)c3)(C1)C2)[C@H]1C[C@@H](O)c2cc(Cl)ccc2O1 [Compound 287, (2R,4R)-6-chloro-4-hydroxy-N-(3-{4-[cis-3-(trifluoromethoxy)cyclobutyl]-1H-imidazol-1-yl}bicyclo[1.1.1]pentan-1-yl)-3,4-dihydro-2H-1-benzopyran-2-carboxamide] | < 10
13 | O=C(NC12CC(c3ncc([C@H]4C[C@@H](OC(F)(F)F)C4)o3)(C1)C2)[C@H]1C[C@@H](O)c2cc(Cl)ccc2O1 [Compound 288, (2R,4R)-6-chloro-4-hydroxy-N-(3-{5-[cis-3-(trifluoromethoxy)cyclobutyl]-1,3-oxazol-2-yl}bicyclo[1.1.1]pentan-1-yl)-3,4-dihydro-2H-1-benzopyran-2-carboxamide] | 10 to 50
14 | O=C(NC12CC(c3ncc([C@H]4C[C@@H](OC(F)(F)F)C4)[nH]3)(C1)C2)[C@H]1C[C@@H](O)c2cc(Cl)ccc2O1 [Compound 289, (2R,4R)-6-chloro-4-hydroxy-N-(3-{5-[cis-3-(trifluoromethoxy)cyclobutyl]-1H-imidazol-2-yl}bicyclo[1.1.1]pentan-1-yl)-3,4-dihydro-2H-1-benzopyran-2-carboxamide] | 10 to 50
15 | O=C(NC12CC(n3cc(C4CCC4)cn3)(C1)C2)[C@H]1C[C@@H](O)c2cc(Cl)ccc2O1 [Compound 290, (2R,4R)-6-chloro-N-[3-(4-cyclobutyl-1H-pyrazol-1-yl)bicyclo[1.1.1]pentan-1-yl]-4-hydroxy-3,4-dihydro-2H-1-benzopyran-2-carboxamide] | 50 to 250
16 | O=C(NC12CC(n3cc(C4CCC4)cn3)(C1)C2)[C@@H]1C[C@@H](O)c2cc(Cl)ccc2O1 [Compound 291, (2S,4R)-6-chloro-N-[3-(4-cyclobutyl-1H-pyrazol-1-yl)bicyclo[1.1.1]pentan-1-yl]-4-hydroxy-3,4-dihydro-2H-1-benzopyran-2-carboxamide] | 500 to 2000
17 | O=C(N[C@@H]1CC[C@@H](c2ncc([C@H]3C[C@@H](OC(F)(F)F)C3)o2)OC1)[C@H]1C[C@@H](O)c2cc(Cl)ccc2O1 [Compound 292, (2R,4R)-6-chloro-4-hydroxy-N-[(3R,6S)-6-{5-[3-(trifluoromethoxy)cyclobutyl]-1,3-oxazol-2-yl}oxan-3-yl]-3,4-dihydro-2H-1-benzopyran-2-carboxamide] | < 10
18 | O=C(NC12CC(c3cn([C@H]4C[C@@H](OC(F)(F)F)C4)cn3)(C1)C2)[C@H]1C[C@@H](O)c2cc(Cl)ccc2O1 [Compound 294, (2R,4R)-6-chloro-4-hydroxy-N-(3-{1-[cis-3-(trifluoromethoxy)cyclobutyl]-1H-imidazol-4-yl}bicyclo[1.1.1]pentan-1-yl)-3,4-dihydro-2H-1-benzopyran-2-carboxamide] | 10 to 50
